Converted amounts (≈) assume the structure as drawn. “And” between values parts separate entries of the source, which are not always exact repeats. Equal values may be shown once. “Also recorded” adds a separate entry of the source. Read-outs that look alike come from different tables or passages of the source.
Tests used:
CYP2C8 = CYP2C8 (Homo sapiens, UniProt P10632)
[1] = rat, in vivo
MERS-CoV pseudovirus [2] = experiment: microbe, parasite or virus in culture; format: cell-based; conditions: Middle East respiratory syndrome-related coronavirus, Huh-7
SARS-CoV pseudovirus [3] = experiment: microbe, parasite or virus in culture; format: cell-based; conditions: Severe acute respiratory syndrome coronavirus, A549-ACE2
in vitro = conditions: human
[4] = system: SARS-CoV-2 (US_WA-1/2020); format: cell-based
CYP3A = CYP3A (Homo sapiens, UniProt P08684)
CYP3A, sequence (P08684 2-503): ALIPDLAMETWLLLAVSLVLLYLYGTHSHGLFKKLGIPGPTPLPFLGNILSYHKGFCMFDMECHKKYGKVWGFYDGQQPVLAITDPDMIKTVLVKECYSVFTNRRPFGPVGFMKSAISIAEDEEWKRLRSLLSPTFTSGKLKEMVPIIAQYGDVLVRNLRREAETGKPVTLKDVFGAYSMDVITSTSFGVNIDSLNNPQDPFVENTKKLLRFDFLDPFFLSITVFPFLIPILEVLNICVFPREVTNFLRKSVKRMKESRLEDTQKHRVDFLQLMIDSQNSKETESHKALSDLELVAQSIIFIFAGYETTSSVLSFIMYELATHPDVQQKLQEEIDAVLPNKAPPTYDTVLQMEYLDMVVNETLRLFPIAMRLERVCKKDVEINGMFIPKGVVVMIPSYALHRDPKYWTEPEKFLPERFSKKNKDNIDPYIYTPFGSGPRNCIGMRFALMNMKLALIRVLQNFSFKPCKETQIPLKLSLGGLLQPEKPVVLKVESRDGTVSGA

[5] = human, microsomes
SARS-CoV pseudovirus [6] = experiment: microbe, parasite or virus in culture; format: cell-based; conditions: Severe acute respiratory syndrome coronavirus, 293T/ACE2
MERS-CoV pseudovirus [7] = experiment: microbe, parasite or virus in culture; format: cell-based; conditions: Middle East respiratory syndrome-related coronavirus, MRC5
CYP1A2 = CYP1A2 (Homo sapiens, UniProt P05177)
CYP1A2, sequence (P05177 whole entry): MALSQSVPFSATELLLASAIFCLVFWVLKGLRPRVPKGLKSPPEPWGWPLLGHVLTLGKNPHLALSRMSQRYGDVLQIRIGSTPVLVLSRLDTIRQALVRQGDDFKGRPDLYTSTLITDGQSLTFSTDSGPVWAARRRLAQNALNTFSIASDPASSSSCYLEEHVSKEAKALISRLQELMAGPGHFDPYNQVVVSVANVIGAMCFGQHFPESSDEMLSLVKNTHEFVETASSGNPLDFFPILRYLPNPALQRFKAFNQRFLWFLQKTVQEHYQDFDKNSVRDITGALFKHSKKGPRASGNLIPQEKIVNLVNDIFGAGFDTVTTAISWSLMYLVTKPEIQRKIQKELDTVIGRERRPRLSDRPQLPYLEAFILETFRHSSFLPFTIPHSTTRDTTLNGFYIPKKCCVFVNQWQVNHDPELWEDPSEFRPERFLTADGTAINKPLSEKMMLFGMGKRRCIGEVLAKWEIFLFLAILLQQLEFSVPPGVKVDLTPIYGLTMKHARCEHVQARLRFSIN

CYP2C19 = CYP2C19 (Homo sapiens, UniProt P33261)
CYP2C19, sequence (P33261 whole entry): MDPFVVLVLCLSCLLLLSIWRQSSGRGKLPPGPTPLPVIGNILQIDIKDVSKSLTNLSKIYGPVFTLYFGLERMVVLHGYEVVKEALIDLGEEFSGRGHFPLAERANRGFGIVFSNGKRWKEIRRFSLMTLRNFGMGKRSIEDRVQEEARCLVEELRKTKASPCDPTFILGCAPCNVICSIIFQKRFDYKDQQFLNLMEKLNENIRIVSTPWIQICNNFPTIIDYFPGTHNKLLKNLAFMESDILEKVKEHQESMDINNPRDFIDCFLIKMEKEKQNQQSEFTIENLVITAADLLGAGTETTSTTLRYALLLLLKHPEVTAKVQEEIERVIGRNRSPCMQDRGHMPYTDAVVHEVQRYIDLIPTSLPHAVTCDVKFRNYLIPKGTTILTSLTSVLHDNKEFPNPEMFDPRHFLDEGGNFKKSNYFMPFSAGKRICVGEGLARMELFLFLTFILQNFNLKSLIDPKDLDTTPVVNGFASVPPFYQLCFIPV

in vivo = conditions: female, Sprague Dawley, rat
[8] = pH 7.4
CYP2D6 [9] = biological target: T1, CYP2D6 (Homo sapiens, UniProt P10635)
T1 sequence (P10635 whole entry, the tested form may be a part): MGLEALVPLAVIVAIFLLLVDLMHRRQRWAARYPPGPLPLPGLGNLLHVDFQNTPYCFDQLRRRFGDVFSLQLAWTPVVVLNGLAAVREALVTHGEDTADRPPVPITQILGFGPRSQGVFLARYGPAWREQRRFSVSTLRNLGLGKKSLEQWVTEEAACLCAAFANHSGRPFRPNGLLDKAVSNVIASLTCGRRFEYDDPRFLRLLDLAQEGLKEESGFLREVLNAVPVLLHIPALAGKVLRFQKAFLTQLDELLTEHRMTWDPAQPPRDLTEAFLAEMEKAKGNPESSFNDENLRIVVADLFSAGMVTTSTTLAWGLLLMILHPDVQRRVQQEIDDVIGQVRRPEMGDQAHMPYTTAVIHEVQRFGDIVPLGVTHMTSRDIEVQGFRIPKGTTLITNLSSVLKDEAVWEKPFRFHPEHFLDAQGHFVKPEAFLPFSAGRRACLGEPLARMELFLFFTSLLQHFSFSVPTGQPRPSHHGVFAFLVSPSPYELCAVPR

[10] = system: SARS-CoV-2 full Spike wild-type (Wuhan-Hu-1) mediated cell-to-cell fusion; experiment: cells; format: cell-based
CYP2B6 = CYP2B6 (Homo sapiens, UniProt P20813)
CYP2B6, sequence (P20813 whole entry): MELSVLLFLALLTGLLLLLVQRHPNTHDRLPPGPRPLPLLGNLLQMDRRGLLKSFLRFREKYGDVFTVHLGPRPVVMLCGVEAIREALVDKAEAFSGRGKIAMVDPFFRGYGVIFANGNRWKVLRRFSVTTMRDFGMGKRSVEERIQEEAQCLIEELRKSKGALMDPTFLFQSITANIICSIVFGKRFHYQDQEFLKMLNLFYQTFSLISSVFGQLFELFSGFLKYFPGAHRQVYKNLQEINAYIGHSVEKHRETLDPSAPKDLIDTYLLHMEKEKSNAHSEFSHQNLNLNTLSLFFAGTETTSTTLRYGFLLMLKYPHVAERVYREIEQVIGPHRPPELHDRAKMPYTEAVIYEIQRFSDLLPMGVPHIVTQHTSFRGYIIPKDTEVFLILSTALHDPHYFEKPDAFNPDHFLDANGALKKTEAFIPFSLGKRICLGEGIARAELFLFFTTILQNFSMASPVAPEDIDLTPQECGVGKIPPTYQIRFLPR

CYP2C9 = CYP2C9 (Homo sapiens, UniProt P11712)
CYP2C9, sequence (P11712 whole entry): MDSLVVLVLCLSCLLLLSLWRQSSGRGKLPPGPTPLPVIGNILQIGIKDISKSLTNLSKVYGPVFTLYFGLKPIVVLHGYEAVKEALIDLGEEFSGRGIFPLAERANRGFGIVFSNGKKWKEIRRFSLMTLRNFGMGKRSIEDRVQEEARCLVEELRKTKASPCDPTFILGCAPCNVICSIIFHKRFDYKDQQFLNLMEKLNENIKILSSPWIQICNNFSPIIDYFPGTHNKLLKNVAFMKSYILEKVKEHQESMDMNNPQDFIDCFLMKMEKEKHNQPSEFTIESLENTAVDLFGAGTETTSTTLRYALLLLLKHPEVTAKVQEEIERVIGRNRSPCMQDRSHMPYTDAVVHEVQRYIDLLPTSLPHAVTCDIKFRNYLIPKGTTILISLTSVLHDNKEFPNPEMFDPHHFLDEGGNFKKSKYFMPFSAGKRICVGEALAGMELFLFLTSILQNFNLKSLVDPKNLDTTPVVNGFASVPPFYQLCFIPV

CYP2D6 [11] = biological target: T1, CYP2D6; experiment: biochemical
SARS-CoV-2 pseudovirus = experiment: microbe, parasite or virus in culture; format: cell-based
[12] = biological target: SARS-CoV-2 spike (active trimer) His-tag (Severe acute respiratory syndrome coronavirus 2, UniProt P0DTC2); format: binding
[13] = female, Sprague Dawley, iv, 5 mg/kg

CYP2C8, sequence (P10632 whole entry): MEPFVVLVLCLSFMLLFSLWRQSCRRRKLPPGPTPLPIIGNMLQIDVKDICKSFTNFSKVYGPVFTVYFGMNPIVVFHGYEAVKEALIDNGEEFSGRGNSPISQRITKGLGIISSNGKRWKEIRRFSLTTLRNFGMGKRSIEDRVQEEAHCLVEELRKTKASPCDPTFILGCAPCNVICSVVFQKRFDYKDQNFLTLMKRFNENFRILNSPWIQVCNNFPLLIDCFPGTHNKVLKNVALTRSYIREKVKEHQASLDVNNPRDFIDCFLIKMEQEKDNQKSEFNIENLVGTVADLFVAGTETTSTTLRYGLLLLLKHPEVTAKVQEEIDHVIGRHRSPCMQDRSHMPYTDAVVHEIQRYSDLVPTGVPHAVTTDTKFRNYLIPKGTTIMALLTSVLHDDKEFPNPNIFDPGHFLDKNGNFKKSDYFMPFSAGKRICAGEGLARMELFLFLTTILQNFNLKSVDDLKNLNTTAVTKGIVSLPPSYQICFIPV

O=C(O)c1cc(-c2ccc(/C=C3\SC(=S)N(CCc4ccccc4)C3=O)o2)ccc1Cl [Compound 1, (Z)-2-Chloro-5-(5-((4-oxo-3-phenethyl-2-thioxothiazolidin-5-ylidene)methyl)furan-2-yl)benzoic acid]
CYP inhibition class (CYP2C8): high (key: IC50 >10 μM (CYP inhibition low); <10 μM (CYP inhibition moderate); <3 μM (CYP inhibition high))
% of Control Enzyme Activity (n = 1) (CYP2C8; 0.0137 μM): 102%
% of Control Enzyme Activity (n = 1) (CYP2C8; 0.0412 μM): 89.0%
% of Control Enzyme Activity (n = 1) (CYP2C8; 0.123 μM): 98.3%
% of Control Enzyme Activity (n = 1) (CYP2C8; 1.11 μM): 76.9%
% of Control Enzyme Activity (n = 1) (CYP2C8; 3.33 μM): 25.3%
% of Control Enzyme Activity (n = 1) (CYP2C8; 10 μM): 3.87%
IC50 (CYP2C8; human, microsomes, pH 7.4): 2080 nM
C0 [1, 13]: 7407.25 ng/mL
CLobs [1, 13]: 0.00013 mg/kg/(ng/mL)/hr
MRT0-inf_obs [1, 13]: 4.02 h
Vss_obs [1, 13]: 0.00053 mg/kg/(ng/mL)
F % ([1]; female, Sprague-Dawley): 20.1%
MRT0-inf_obs ([1]; female, Sprague-Dawley, po, 10 mg/kg): 14.34 h
Vz/F_obs ([1]; po, 10 mg/kg): 0.01078 mg/kg/(ng/mL)
IC50 (MERS-CoV pseudovirus [2]): 95 to 158 nM
IC50 (SARS-CoV pseudovirus [3]): 98 to 157 nM
CC50 (in vitro): 37500 ± 1000 nM
IC100 [4]: 1.25 µM
CYP inhibition class (CYP3A): low (key: IC50 >10 μM (CYP inhibition low); <10 μM (CYP inhibition moderate); <3 μM (CYP inhibition high))
% of Control Enzyme Activity (n = 1) (CYP3A; 0.0137 μM): 96.7% and 96.6%
% of Control Enzyme Activity (n = 1) (CYP3A; 0.0412 μM): 97.0%
% of Control Enzyme Activity (n = 1) (CYP3A; 0.123 μM): 94.5% and 94.8%
% of Control Enzyme Activity (n = 1) (CYP3A; 0.370 μM, 0.37 µM): 95.1% and 96.3%
% of Control Enzyme Activity (n = 1) (CYP3A; 1.11 μM): 95.9% and 94.6%
% of Control Enzyme Activity (n = 1) (CYP3A; 3.33 μM): 88.2% and 82.2%
% of Control Enzyme Activity (n = 1) (CYP3A; 10 μM): 61.6% and 59.9%
clearance (in words) [5]: low-clearance compound
IC50 (SARS-CoV pseudovirus [6]): 13.8 to 17 nM
IC50 (MERS-CoV pseudovirus [7]): 76.5 to 123 nM
CYP inhibition class (CYP1A2): moderate (key: IC50 >10 μM (CYP inhibition low); <10 μM (CYP inhibition moderate); <3 μM (CYP inhibition high))
% of Control Enzyme Activity (n = 1) (CYP1A2; 0.0137 μM): 99.2%
% of Control Enzyme Activity (n = 1) (CYP1A2; 0.0412 μM): 96.7%
% of Control Enzyme Activity (n = 1) (CYP1A2; 0.123 μM): 93.8%
% of Control Enzyme Activity (n = 1) (CYP1A2; 0.370 μM): 92.2%
% of Control Enzyme Activity (n = 1) (CYP1A2; 1.11 μM): 89.8%
% of Control Enzyme Activity (n = 1) (CYP1A2; 3.33 μM): 69.5%
% of Control Enzyme Activity (n = 1) (CYP1A2; 10 μM): 41.3%
IC50 (CYP1A2; human, microsomes, pH 7.4): 7400 nM
CYP inhibition class (CYP2C19): moderate (key: IC50 >10 μM (CYP inhibition low); <10 μM (CYP inhibition moderate); <3 μM (CYP inhibition high))
% of Control Enzyme Activity (n = 1) (CYP2C19; 0.0137 μM): 103%
% of Control Enzyme Activity (n = 1) (CYP2C19; 0.0412 μM): 110%
% of Control Enzyme Activity (n = 1) (CYP2C19; 0.123 μM): 101%
% of Control Enzyme Activity (n = 1) (CYP2C19; 0.370 μM): 102%
% of Control Enzyme Activity (n = 1) (CYP2C19; 1.11 μM): 92.0%
% of Control Enzyme Activity (n = 1) (CYP2C19; 3.33 μM): 70.8%
% of Control Enzyme Activity (n = 1) (CYP2C19; 10 μM): 40.7%
IC50 (CYP2C19; human, microsomes, pH 7.4): 7310 nM
AUC(0-t) (in vivo; iv, 5 mg/kg): 37500 ng·h/mL
AUC(0-t) (in vivo; po, 10 mg/kg): 12000 ng·h/mL
Solubility in Phosphate Buffer, Average [8]: 4.72 µM (≈ 2.22 µg/mL)
Solubility in Phosphate Buffer, R1 [8]: 4.35 µM (≈ 2.04 µg/mL)
CYP inhibition class (CYP2D6 [9]): low (key: IC50 >10 μM (CYP inhibition low); <10 μM (CYP inhibition moderate); <3 μM (CYP inhibition high))
% of Control Enzyme Activity (n = 1) (CYP2D6 [9]; 0.0137 μM): 95.8%
% of Control Enzyme Activity (n = 1) (CYP2D6 [9]; 0.0412 μM): 98.7%
% of Control Enzyme Activity (n = 1) (CYP2D6 [9]; 0.123 μM): 98.6%
% of Control Enzyme Activity (n = 1) (CYP2D6 [9]; 0.370 μM): 101%
% of Control Enzyme Activity (n = 1) (CYP2D6 [9]; 1.11 μM): 97.0%
% of Control Enzyme Activity (n = 1) (CYP2D6 [9]; 3.33 μM): 84.3%
% of Control Enzyme Activity (n = 1) (CYP2D6 [9]; 10 μM): 59.2%
melting point: 348 to 350 °C
inhibition of SARS-CoV-2 mediated cell-to-cell fusion (in words) [10]: potently inhibited the cell-to-cell fusion even at the lowest dose
inhibition at 0.25 µM ([10]; Severe acute respiratory syndrome coronavirus 2, Jurkat, at 250 nM, read-out: inhibitory activity of SARS-CoV-2 mediated cell-to-cell fusion): 62 to 79%
CYP inhibition class (CYP2B6): moderate (key: IC50 >10 μM (CYP inhibition low); <10 μM (CYP inhibition moderate); <3 μM (CYP inhibition high))
% of Control Enzyme Activity (n = 1) (CYP2B6; 0.0137 μM): 97.5%
% of Control Enzyme Activity (n = 1) (CYP2B6; 0.0412 μM): 98.1%
% of Control Enzyme Activity (n = 1) (CYP2B6; 0.123 μM): 90.4%
% of Control Enzyme Activity (n = 1) (CYP2B6; 0.370 μM): 94.2%
% of Control Enzyme Activity (n = 1) (CYP2B6; 1.11 μM): 76.9%
% of Control Enzyme Activity (n = 1) (CYP2B6; 3.33 μM): 47.0%
% of Control Enzyme Activity (n = 1) (CYP2B6; 10 μM): 15.2%
IC50 (CYP2B6; human, microsomes, pH 7.4): 3190 nM
CYP inhibition class (CYP2C9): moderate (key: IC50 >10 μM (CYP inhibition low); <10 μM (CYP inhibition moderate); <3 μM (CYP inhibition high))
% of Control Enzyme Activity (n = 1) (CYP2C9; 0.0137 μM): 99.4%
% of Control Enzyme Activity (n = 1) (CYP2C9; 0.0412 μM): 98.2%
% of Control Enzyme Activity (n = 1) (CYP2C9; 0.123 μM): 97.2%
% of Control Enzyme Activity (n = 1) (CYP2C9; 0.370 μM): 95.1%
% of Control Enzyme Activity (n = 1) (CYP2C9; 1.11 μM): 85.1%
% of Control Enzyme Activity (n = 1) (CYP2C9; 3.33 μM): 59.9%
% of Control Enzyme Activity (n = 1) (CYP2C9; 10 μM): 29.8%
IC50 (CYP2C9; human, microsomes, pH 7.4): 5010 nM
IC50 (CYP2D6 [11]): > 10000 nM
antiviral activity against SARS-CoV-2 pseudovirus (in words) (SARS-CoV-2 pseudovirus): low nanomolar activity; also recorded: excellent antiviral activity; also recorded: low nM IC50
IC50 (SARS-CoV-2 pseudovirus; Severe acute respiratory syndrome-related coronavirus, read-out: IC50s against SARS-CoV-2 pseudovirus over the cell lines): 32.3 to 63.4 nM
ka [12]: 1040 M⁻¹ s⁻¹
